We go through one compound from patent US20180344702A1, “METHODS FOR TREATING PATIENTS WITH HEMATOLOGIC MALIGNANCIES” (Aptose Biosciences, Inc., priority 2017, published 2018).

One test has as its target T1, FLT3(D835H) (Homo sapiens, UniProt P36888, D835H).
T1 construct: made in house; host or cells: E. coli BL21-derived host (T7 phage) or HEK-293
Briefly: Binding constant (Kd), kinase-tagged phage / affinity bead competition binding with qPCR readout.

Another test has as its target T2, FLT3(D835Y) (Homo sapiens, UniProt P36888, D835Y).
T2 construct: made in house; host or cells: E. coli BL21-derived host (T7 phage) or HEK-293
Briefly: Binding constant (Kd), competition binding with qPCR readout.

Another test has as its target T3, FLT3(D835V) (Homo sapiens, UniProt P36888, D835V).
T3 construct: made in house; host or cells: E. coli BL21-derived host (T7 phage) or HEK-293
Described as above. On the procedure: (§1) Measurements of said kinase activity are referred to as binding constants or Kd values. The protocol for obtaining these values is hereby described. For most assays, kinase-tagged T7 phage strains were prepared in an E. coli host derived from the BL21 strain. E. coli were grown to log-phase and infected with T7 phage and incubated with shaking at 32° C. until lysis. The lysates were centrifuged and filtered to remove cell debris. The remaining kinases were produced in HEK-293 cells and subsequently tagged with DNA for qPCR detection. […] The liganded beads were blocked with excess biotin and washed with blocking buffer (SeaBlock (Pierce), 1% BSA, 0.05% Tween 20, 1 mM DTT) to remove unbound ligand and to reduce nonspecific binding. […] Test compounds were prepared as 111× stocks in 100% DMSO. Kds were determined using an 11-point 3-fold compound dilution series with three DMSO control points. […] The compounds were then diluted directly into the assays such that the final concentration of DMSO was 0.9%. All reactions performed in polypropylene 384-well plate. Each was a final volume of 0.02 ml. […] The kinase concentration in the eluates was measured by qPCR.

The target of another test is T4, FLT3(ITD-D835V) (Homo sapiens, UniProt P36888, D835V, form not given).
T4 construct: kinase-tagged T7 phage strains were prepared in an E. coli host derived from the BL21 strain; fused on or other part: T7 phage fusion or DNA tag for qPCR detection
The description is as above. On the procedure:
as §1

A further test concerns the target T5, FLT3(ITD-F691L) (Homo sapiens, UniProt P36888, F691L, form not given).
T5 construct: kinase-tagged T7 phage strains were prepared in an E. coli host derived from the BL21 strain; fused on or other part: T7 phage fusion or DNA tag for qPCR detection
Described as above. On the procedure: as §1

In another test the target is T6, FLT3(R834Q) (Homo sapiens, UniProt P36888, R834Q).
T6 construct: made in house; host or cells: E. coli BL21-derived host (T7 phage) or HEK-293
The test is described as above. On the procedure: as §1

The next test concerns the target T7, FLT3(N841I) (Homo sapiens, UniProt P36888, N841I).
T7 construct: made in house; host or cells: E. coli BL21-derived host (T7 phage) or HEK-293
The test is described as above.

Another test has as its target EGFR (Homo sapiens, UniProt P00533). Briefly: Key off-targets (Table 8). It is filed as biochemical.
A further test concerns GRANTA-519. Description: Cytotoxicity, MTS cell viability. Type of test: cell-based. The following applies: Homo sapiens, 72 h, MCL, 3 days MTS. On the procedure: (§2) Cells were seeded in a 96 well plate and treated with either vehicle (DMSO) or compound 7 at 10 different concentrations for 3 days at 37° C. and 5% CO2. Cell viability was assessed using CellTiter 96 AQueous one solution (MTS Promega Cat#G3581), and IC50 values calculated using GraphPad Prism 7 software.
(§3) Cytotoxicity procedure: Cells were seeded in 96-well plate and treated with vehicle DMSO or Compound 7 at a specified concentration and incubated for 72 hours.

The test system of another test is K562. Briefly: Cytotoxicity, MTS cell viability. Type of test: cell-based. The note with it: Homo sapiens, 72 h, CML, 3 days MTS. On the procedure: as §2, §3
A further test relates to RS411. Briefly: Cytotoxicity, MTS cell viability. It is filed as cell-based. The note with it: Homo sapiens, RS4-11, 72 h, ALL / B-ALL, 3 days MTS. On the procedure: as §2, §3
Another test concerns Ramos. Briefly: Cytotoxicity, MTS cell viability. The following applies: Homo sapiens, 72 h, Burkitt's, 3 days MTS. Type of test: cell-based. On the procedure: as §2, §3
Another test concerns SU-DHL6. Briefly: Cytotoxicity, MTS cell viability. Type of test: cell-based. The note with it: Homo sapiens, SU-DHL-6, 72 h, DLBCL / GCB-DLBCL, 3 days MTS. On the procedure:
as §2, §3

Test [1] relates to Ba/F3 cells transfected with FLT3 D835Y. Description: Cytotoxicity in isogenic transfected Ba/F3 cells (Table 4). Type of test: cell-based, Murin. The note with it: Mus musculus, BaF3, read-out: IC50 in Transfected Ba/F3 cells, FLT3 D835Y.
For another test, the system named is Kasumi-1 (FLT3-WT). Briefly: Antiproliferative activity (Table 6). It is filed as cell-based. The note with it: Homo sapiens, Kasumi 1, 72 h.
A further test has as its system MV4-11 cells. Description: Apoptosis of MV4-11 cells (Annexin V, Western blot). Type of test: cell-based, human. On the procedure: The data presented in FIGS. 7A-7C, FIGS. 8A-8B, and FIGS. 17A-17J were generated using well-known protocols for measuring apoptosis, which are readily apparent to a skilled artisan. Without being bound by any theory, an overview of the procedure can be found in, for example, Rieger et al., Modified Annexin V/Propidium Iodide Apoptosis Assay For Accurate Assessment of Cell Death, J VI. Exp. 2011; (50): 2597.
IC50s and EC50s: Certain cell viability studies described herein were assessed using the Tryptan blue dye exclusion method or the MTS assay. Certain apoptosis studies and related studies described herein were determined via FACS by annexin V positivity.

For the next test, the system named is MOLM-13 cells. Briefly: Cell-cycle analysis (flow cytometry). Type of test: cell-based, human. The note with it: dose-dependent. On the procedure:
Cell-cycle analysis: Cells were treated with vehicle, DMSO or Compound 7 and were stained with PI and EdU, and then analyzed by flow cytometry to determine the phases of cell cycle.

The test system of test [2] is Aurora kinase in FLT3 WT cells (KG-1). Description: Cell signaling Western blot. Type of test: cell-based. The following applies: KG-1 cells, FIGS. 25A-25B. On the procedure:
(§4) Immunoblot assays: Cells were treated with Compound 7 at various concentrations and collected for cell lysates. The total and phosphorylated levels of the indicated proteins were determined by Western Blot.

Test [3] has as its system PDGFRA and FLT3 (WT) signaling in EOL-1 cells. Briefly: Cell signaling Western blot. It is filed as cell-based. On the procedure:
as §4

In test [4] the test system is Aurora kinase in Mino, Ramos and SU-DHL6. Description: Aurora kinase inhibition in B-cell lines (Western blot). Type of test: cell-based. The following applies: FIGS. 13A-13C. On the procedure: Inhibition of Aurora kinase activity was measured by western blotting for phosphorylation levels of Aurora kinases or and down-stream targets and by cell cycle and DNA content analysis. Whole cell extracts from Compound 7 treated cells were resolved by gel electrophoresis and transferred to nitrocellulose membranes and inhibition of Aurora kinase A/B and H3S10 phosphorylation was detected with specific antibodies. DNA synthesis and cell cycle phase was assessed by staining compound 7 of vehicle treated cells with 5-ethynyl-2′deoxyuridine (Edu) Alexa Fluor 488 and PI.

EGFR, sequence (P00533 25-1210): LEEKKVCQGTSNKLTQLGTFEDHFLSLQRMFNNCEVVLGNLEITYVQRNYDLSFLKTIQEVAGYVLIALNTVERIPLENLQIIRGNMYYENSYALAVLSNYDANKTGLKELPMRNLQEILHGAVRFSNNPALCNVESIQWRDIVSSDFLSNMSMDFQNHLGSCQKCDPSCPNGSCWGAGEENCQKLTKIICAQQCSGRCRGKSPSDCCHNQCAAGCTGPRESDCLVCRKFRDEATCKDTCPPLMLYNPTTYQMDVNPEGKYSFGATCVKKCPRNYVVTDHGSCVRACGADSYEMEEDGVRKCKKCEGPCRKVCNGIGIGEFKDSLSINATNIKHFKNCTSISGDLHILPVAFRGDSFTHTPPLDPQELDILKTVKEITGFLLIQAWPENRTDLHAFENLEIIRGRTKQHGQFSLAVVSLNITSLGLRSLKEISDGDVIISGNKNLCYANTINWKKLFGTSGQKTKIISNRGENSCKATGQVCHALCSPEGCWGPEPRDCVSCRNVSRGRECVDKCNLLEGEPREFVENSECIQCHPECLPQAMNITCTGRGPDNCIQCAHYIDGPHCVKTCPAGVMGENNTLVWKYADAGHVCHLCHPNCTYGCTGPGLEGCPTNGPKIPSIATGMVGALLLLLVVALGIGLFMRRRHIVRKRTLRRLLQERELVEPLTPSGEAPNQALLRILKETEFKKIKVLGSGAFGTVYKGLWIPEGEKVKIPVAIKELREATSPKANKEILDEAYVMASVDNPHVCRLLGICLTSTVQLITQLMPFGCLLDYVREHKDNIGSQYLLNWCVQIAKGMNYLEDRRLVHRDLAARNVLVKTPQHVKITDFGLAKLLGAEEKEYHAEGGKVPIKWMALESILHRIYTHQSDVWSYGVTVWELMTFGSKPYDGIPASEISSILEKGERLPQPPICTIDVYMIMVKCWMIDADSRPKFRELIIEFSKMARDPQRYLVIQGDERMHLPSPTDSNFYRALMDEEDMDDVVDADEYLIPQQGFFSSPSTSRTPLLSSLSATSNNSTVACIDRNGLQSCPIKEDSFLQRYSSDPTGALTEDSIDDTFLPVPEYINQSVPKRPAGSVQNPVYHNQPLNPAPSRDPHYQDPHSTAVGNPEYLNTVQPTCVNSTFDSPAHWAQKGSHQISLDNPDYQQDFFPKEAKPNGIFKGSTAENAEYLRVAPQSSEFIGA

Consider `Cc1cnc(-c2ccc(-c3ccc(NC(=O)Nc4c(F)cc(F)cc4F)cc3F)c3c2C(=O)NC3)[nH]1` [Compound 7, 1-{3-fluoro-4-[7-(5-methyl-1H-imidazol-2-yl)-1-oxo-2,3-dihydro-1H-isoindol-4-yl]-phenyl}-3-(2,4,6-trifluorophenyl)urea], for which the Kd came out at 2.2 nM on FLT3(D835H); 4.2 nM on FLT3(D835Y); 7.9 nM at FLT3(D835V); 1700 nM at FLT3(ITD-D835V); 15 nM at FLT3(ITD-F691L); 6.4 nM on FLT3(R834Q). The affinity at FLT3(N841I), expressed as Kd, was 0.76 nM. Besides, the IC50 is over 1000 nM against EGFR; 13.6 nM in the test on GRANTA-519; 12900 nM in the test on K562; 1.51 nM in the test with RS411; 18.4 nM in the test on Ramos; 122 nM with SU-DHL6. The IC50 is 8.8 nM in [1] and 22 nM in the test with Kasumi-1 (FLT3-WT). Besides, the “Inhibition of EGFR (in words)” value at EGFR is recorded as “no inhibition”. Moreover, in the test on MV4-11 cells (MV4-11 cells, 1, 3, 6, 24 hour), the “Time dependency of apoptosis” value is listed as “induces apoptosis in a time dependent manner”. Further, the Apoptosis induction entry in the test on MV4-11 cells (MV411 cells, 24 hours, various concentrations) is “induces apoptosis”. Moreover, the G0/G1 cell-cycle arrest entry with MOLM-13 cells was “induce G0/G1 cell-cycle arrest”. Moreover, the “Aurora kinase activity and signaling (Western blot)” value in [2] was “inhibits Aurora kinase activity and signaling”. Further, the “PDGFRA and FLT3 (WT) signaling (Western blot)” value in test [3] was “inhibits PDGFRA and FLT3 (WT) signaling”. The “Aurora kinase inhibition (phosphorylation patterns)” value in [4] is listed as “effective as an Aurora Kinase inhibitor”.
